Test results published in the supplement of paper PMC5908809.

Experiments:
Assay in all cases: relative IC50 (inflection point of fitted viability curve, relative to fitted max inhibition); higher = less sensitive
Details in all cases: 72 h
[1] = tested on: KHYG-1 (IL-2 2.5 ng/mL)
Procedure: (§1)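 Drug sensitivity and resistance testing: 5 concentrations over a 10,000-fold range, 72 h at 37 °C, viability by CellTiter-Glo normalised to DMSO and benzethonium chloride controls. IC50 is the inflection point of a logistic fit (min fixed at 0, max fitted), so it is relative to the fitted maximal inhibition. Kept only where fitted max inhibition is at least 50%.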

[2] = tested on: NK-YS (IL-2 2.5 ng/mL)
Procedure: as §1

[3] = tested on: IMC-1 (IL-2 20 ng/mL)
Procedure: as §1

[4] = tested on: DERL-7 (IL-2 2.5 ng/mL)
Procedure: as §1

[5] = tested on: YT (IL-2 2.5 ng/mL)
Procedure: as §1

[6] = tested on: NK-92 (IL-2 2.5 ng/mL)
Procedure: as §1

[7] = tested on: normal primary NK cells, pool 3 (3 donors) (IL-2 2.5 ng/mL)
Procedure: as §1

[8] = tested on: KAI3 (IL-2 2.5 ng/mL)
Procedure: as §1

[9] = tested on: NKL (IL-2 2.5 ng/mL)
Procedure: as §1

[10] = tested on: normal primary NK cells, pool 1 (3 donors), resting (IL-2 0 ng/mL)
Procedure: as §1

[11] = tested on: normal primary NK cells, pool 1 (3 donors) (IL-2 2.5 ng/mL)
Procedure: as §1

[12] = tested on: normal primary NK cells, pool 2 (3 donors) (IL-2 2.5 ng/mL)
Procedure: as §1

[13] = tested on: SNK-6 (IL-2 2.5 ng/mL)
Procedure: as §1

## CC(C)CC(=O)Nc1n[nH]c2c1CN(C(=O)C1CCN(C)CC1)C2(C)C
[1]
  relative IC50: 380 nM
[2]
  relative IC50: 463 nM
[3]
  relative IC50: 182 nM
[4]
  relative IC50: 666 nM
[5]
  relative IC50: 1220 nM
[6]
  relative IC50: 871 nM
[7]
  relative IC50: 2210 nM
[8]
  relative IC50: 1390 nM
[9]
  relative IC50: 1510 nM
[10]
  relative IC50: 4760 nM
[11]
  relative IC50: 3000 nM
[12]
  relative IC50: 1890 nM
[13]
  relative IC50: 1650 nM

## COc1ccc(-c2cc3c(C)nc(N)nc3n([C@H]3CC[C@H](OCCO)CC3)c2=O)cn1
[1]
  relative IC50: 476 nM
[2]
  relative IC50: 344 nM
[3]
  relative IC50: 4020 nM
[4]
  relative IC50: 41.3 nM
[5]
  relative IC50: 116 nM
[6]
  relative IC50: 84.6 nM
[7]
  relative IC50: 1510 nM
[8]
  relative IC50: 163 nM
[9]
  relative IC50: 264 nM
[10]
  relative IC50: 514 nM
[11]
  relative IC50: 939 nM
[12]
  relative IC50: 951 nM
[13]
  relative IC50: 1060 nM

## C[C@@H](Oc1ccc2[nH]nc(/C=C/c3cnn(CCO)c3)c2c1)c1c(Cl)cncc1Cl
[1]
  relative IC50: 16.1 nM
[2]
  relative IC50: 59.2 nM
[3]
  relative IC50: 165 nM
[4]
  relative IC50: 91.8 nM
[5]
  relative IC50: 224 nM
[6]
  relative IC50: 50.1 nM
[7]
  relative IC50: 30.1 nM
[8]
  relative IC50: 20.9 nM
[9]
  relative IC50: 11.9 nM
[11]
  relative IC50: 47.9 nM
[12]
  relative IC50: 15.6 nM
[13]
  relative IC50: 15.7 nM

## Cc1nc(Nc2n[nH]c3c2CN(C(=O)N[C@H](CN(C)C)c2ccccc2)C3(C)C)c2sccc2n1
[1]
  relative IC50: 33.1 nM
[2]
  relative IC50: 83.5 nM
[3]
  relative IC50: 4.06 nM
[4]
  relative IC50: 57.3 nM
[5]
  relative IC50: 266 nM
[6]
  relative IC50: 431 nM
[7]
  relative IC50: 1590 nM
[8]
  relative IC50: 243 nM
[9]
  relative IC50: 503 nM
[10]
  relative IC50: 1300 nM
[11]
  relative IC50: 1420 nM
[12]
  relative IC50: 575 nM
[13]
  relative IC50: 1340 nM

## O=C(NC1CCNCC1)c1n[nH]cc1NC(=O)c1c(Cl)cccc1Cl [AT7519]
[1]
  relative IC50: 753 nM
[2]
  relative IC50: 236 nM
[3]
  relative IC50: 317 nM
[4]
  relative IC50: 356 nM
[5]
  relative IC50: 424 nM
[6]
  relative IC50: 1270 nM
[7]
  relative IC50: 381 nM
[8]
  relative IC50: 355 nM
[9]
  relative IC50: 204 nM
[10]
  relative IC50: 400 nM
[11]
  relative IC50: 265 nM
[12]
  relative IC50: 319 nM
[13]
  relative IC50: 307 nM

## COc1cc(N2CCN(C)CC2)ccc1Nc1nccc(-c2cn(C)c3cnccc23)n1 [AZ191]
[1]
  relative IC50: 1890 nM
[2]
  relative IC50: 2440 nM
[3]
  relative IC50: 2910 nM
[4]
  relative IC50: 1650 nM
[6]
  relative IC50: 3940 nM
[7]
  relative IC50: 3870 nM
[8]
  relative IC50: 2510 nM
[9]
  relative IC50: 2340 nM
[10]
  relative IC50: 4320 nM
[11]
  relative IC50: 3430 nM
[12]
  relative IC50: 3700 nM
[13]
  relative IC50: 3570 nM

## Cc1ncc(-c2ccnc(Nc3ccc(S(C)(=O)=O)cc3)n2)n1C(C)C [AZD-5438]
[1]
  relative IC50: 1080 nM
[2]
  relative IC50: 848 nM
[3]
  relative IC50: 1220 nM
[4]
  relative IC50: 1370 nM
[5]
  relative IC50: 1570 nM
[6]
  relative IC50: 3010 nM
[7]
  relative IC50: 1800 nM
[8]
  relative IC50: 1150 nM
[9]
  relative IC50: 2740 nM
[10]
  relative IC50: 5260 nM
[11]
  relative IC50: 2220 nM
[12]
  relative IC50: 1930 nM
[13]
  relative IC50: 3300 nM

## CO[C@H]1/C=C\C=C(/C)C(=O)NC2=CC(=O)C(NCCN(C)C)=C(C[C@@H](C)C[C@H](OC)[C@H](O)[C@@H](C)/C=C(\C)[C@@H]1OC(N)=O)C2=O [Alvespimycin]
[1]
  relative IC50: 91.8 nM
[2]
  relative IC50: 25.1 nM
[3]
  relative IC50: 192 nM
[4]
  relative IC50: 49.1 nM
[5]
  relative IC50: 130 nM
[6]
  relative IC50: 68.8 nM
[7]
  relative IC50: 86.5 nM
[8]
  relative IC50: 44.5 nM
[9]
  relative IC50: 31.9 nM
[11]
  relative IC50: 29.4 nM
[12]
  relative IC50: 29.5 nM
[13]
  relative IC50: 20.5 nM

## S=C(NCc1ccc2c(c1)OCO2)N1CCN(c2ncnc3c2oc2ccccc23)CC1 [Amuvatinib]
[1]
  relative IC50: 1330 nM
[2]
  relative IC50: 2060 nM
[4]
  relative IC50: 521 nM
[6]
  relative IC50: 911 nM
[7]
  relative IC50: 1760 nM
[8]
  relative IC50: 1480 nM
[9]
  relative IC50: 815 nM
[10]
  relative IC50: 1380 nM
[11]
  relative IC50: 1570 nM
[12]
  relative IC50: 1930 nM
[13]
  relative IC50: 388 nM

## COc1cc(Nc2c(C#N)cnc3cc(OCCCN4CCN(C)CC4)c(OC)cc23)c(Cl)cc1Cl [Bosutinib]
[1]
  relative IC50: 1480 nM
[2]
  relative IC50: 2980 nM
[3]
  relative IC50: 3640 nM
[4]
  relative IC50: 1320 nM
[5]
  relative IC50: 1950 nM
[6]
  relative IC50: 1620 nM
[7]
  relative IC50: 3450 nM
[8]
  relative IC50: 1350 nM
[9]
  relative IC50: 3110 nM
[10]
  relative IC50: 850 nM
[11]
  relative IC50: 1710 nM
[12]
  relative IC50: 1520 nM
[13]
  relative IC50: 3870 nM

## CCC/C=C/C=C/C(=O)O[C@H]1/C(=C/C(=O)OC)C[C@H]2C[C@H]([C@@H](C)O)OC(=O)C[C@H](O)C[C@@H]3C[C@H](OC(C)=O)C(C)(C)[C@](O)(C[C@@H]4C/C(=C/C(=O)OC)C[C@H](/C=C/C(C)(C)[C@]1(O)O2)O4)O3 [Bryostatin 1]
[1]
  relative IC50: 0.13 nM
[3]
  relative IC50: 0.28 nM
[6]
  relative IC50: 0.23 nM
[7]
  relative IC50: > 100 nM
[9]
  relative IC50: > 100 nM
[11]
  relative IC50: > 100 nM
[12]
  relative IC50: > 100 nM
[13]
  relative IC50: 1 nM

## COc1ccc(-c2nc(N3CCOCC3)c3sc(CN(C)c4ncc(C(=O)NO)cn4)cc3n2)cn1 [CUDC-907]
[1]
  relative IC50: 2.32 nM
[2]
  relative IC50: 8.33 nM
[3]
  relative IC50: 13 nM
[4]
  relative IC50: 1.6 nM
[5]
  relative IC50: 14.7 nM
[6]
  relative IC50: 2.64 nM
[7]
  relative IC50: 8.82 nM
[8]
  relative IC50: < 1 nM
[9]
  relative IC50: < 1 nM
[10]
  relative IC50: 3.45 nM
[11]
  relative IC50: 6.42 nM
[12]
  relative IC50: 5.81 nM
[13]
  relative IC50: 7.89 nM

## Cc1nc(N)sc1-c1ccnc(Nc2ccc(N3CCOCC3)cc2)n1 [CYC-116]
[1]
  relative IC50: 599 nM
[2]
  relative IC50: 238 nM
[3]
  relative IC50: 913 nM
[4]
  relative IC50: 538 nM
[5]
  relative IC50: 1400 nM
[6]
  relative IC50: 889 nM
[7]
  relative IC50: 2800 nM
[8]
  relative IC50: 1100 nM
[9]
  relative IC50: 989 nM
[11]
  relative IC50: 1810 nM
[12]
  relative IC50: 1600 nM
[13]
  relative IC50: 171 nM

## CC(C)C[C@H](NC(=O)[C@H](CCc1ccccc1)NC(=O)CN1CCOCC1)C(=O)N[C@@H](Cc1ccccc1)C(=O)N[C@@H](CC(C)C)C(=O)[C@@]1(C)CO1 [Carfilzomib]
[1]
  relative IC50: 2.95 nM
[2]
  relative IC50: 2.91 nM
[3]
  relative IC50: 3.26 nM
[4]
  relative IC50: 0.92 nM
[5]
  relative IC50: 3.07 nM
[6]
  relative IC50: 1.96 nM
[7]
  relative IC50: 2.58 nM
[8]
  relative IC50: 1.43 nM
[9]
  relative IC50: 3.52 nM
[10]
  relative IC50: 1.41 nM
[11]
  relative IC50: 1.61 nM
[12]
  relative IC50: 1.77 nM
[13]
  relative IC50: 2.8 nM

## Cc1cc(Nc2cc(N3CCN(C)CC3)nc(/C=C/c3ccccc3)n2)n[nH]1 [ENMD-2076]
[1]
  relative IC50: 482 nM
[2]
  relative IC50: 293 nM
[3]
  relative IC50: 573 nM
[4]
  relative IC50: 497 nM
[5]
  relative IC50: 1360 nM
[6]
  relative IC50: 901 nM
[7]
  relative IC50: 1970 nM
[8]
  relative IC50: 256 nM
[9]
  relative IC50: 503 nM
[10]
  relative IC50: 1710 nM
[11]
  relative IC50: 1500 nM
[12]
  relative IC50: 1290 nM
[13]
  relative IC50: 541 nM

## COc1cc2c(cc1-c1c(C)noc1C)ncc1[nH]c(=O)n([C@H](C)c3ccccn3)c12 [I-BET151]
[1]
  relative IC50: 606 nM
[2]
  relative IC50: 707 nM
[3]
  relative IC50: 2040 nM
[4]
  relative IC50: 306 nM
[5]
  relative IC50: 966 nM
[7]
  relative IC50: 1850 nM
[8]
  relative IC50: 848 nM
[9]
  relative IC50: 375 nM
[10]
  relative IC50: 1010 nM
[11]
  relative IC50: 1040 nM
[12]
  relative IC50: 1240 nM
[13]
  relative IC50: 149 nM

## CC(=O)[C@]1(O)Cc2c(O)c3c(c(O)c2[C@@H](O[C@H]2C[C@H](N)[C@H](O)[C@H](C)O2)C1)C(=O)c1ccccc1C3=O [Idarubicin]
[1]
  relative IC50: 6.52 nM
[2]
  relative IC50: 6.58 nM
[3]
  relative IC50: 7.71 nM
[4]
  relative IC50: 6.26 nM
[5]
  relative IC50: 34 nM
[6]
  relative IC50: 5.78 nM
[7]
  relative IC50: 10.9 nM
[8]
  relative IC50: 3.54 nM
[9]
  relative IC50: 1.74 nM
[10]
  relative IC50: 3.38 nM
[11]
  relative IC50: 17.3 nM
[12]
  relative IC50: 9.51 nM
[13]
  relative IC50: 5.03 nM
